From patent US7371734B2, “Oligonucleotide compositions and their use for the modulation of immune responses” (Bioniche Life Sciences Inc., priority 2002, dated 2008)
Marks after values point to notes of the source that are not given here.

Tests used:
Format in all cases: cell-based
Human dendritic cells [1] = assay: CD40 levels at the DC cell surface (flow cytometry); settings: DC from individual C; 100 μg, 48 hours
Protocol: (§1) Human dendritic cells were obtained from Clonetics (San Diego, Calif., USA) and were cultured in the medium recommended by Clonetics. DC were obtained from three different individuals (see Table 1). Major histocompatability typing was performed on each of these individuals and several of the HLA (human leukocyte antigens) types are shown.
DC from individuals B and C were seeded in 1.0 ml at 1.0×10^5 cells/ml in 6-well flat-bottomed tissue culture plates for 48 hours with 100 μg of 6 base N1A, N1B, N2A, N2B, N3A, N3B, N4A, N4B, N5A, N5B, N6A, N6B, N7A or N7B polynucleotides. The level of CD40 at the cell surface was determined after 48 hours of incubation by flow cytometry (FACSCalibur system) using a FITC-conjugated monoclonal antibody directed to CD40 and analyzed by CELLQuest Pro (all from Becton Dickinson). Results are expressed as the percentage of CD40^hi DC following treatment. The term “CD40^hi” refers to a population of cells identified by flow cytometry as having higher than baseline expression of CD40.

Human dendritic cells [2] = assay: Induction of IL-12 production by DC (ELISA); settings: 100 μg, 48 hours
Protocol: as §1
DC were seeded in 1.0 ml at 1.0×10^5 cells/ml in 6-well flat-bottomed tissue culture plates for 48 hours with 100 μg of 6 base N1A, N1B, N2A, N2B, N3A, N3B, N4A, N4B, N5A, N5B, N6A, N6B, N7A or N7B polynucleotides. Production of IL-12 was determined in 100 μl of culture supernatant using a commercial ELISA (BioSource) after 48 hours of incubation. Results are expressed as the “fold” (x) increase in IL-12 production by treated DC compared to control cells.

Human dendritic cells [3] = assay: CD80 levels at the DC cell surface (flow cytometry); settings: 100 μg, 48 hours
Protocol: as §1
DC from individuals B and C were seeded in 1.0 ml at 1.0×10^5 cells/ml in 6-well flat-bottomed tissue culture plates for 48 hours with 100 μg of 6 base N1A, N1B, N2A, N2B, N3A, N3B, N4A, N4B, N5A, N5B, N6A, N6B, N7A or N7B polynucleotides. The level of CD80 at the cell surface was determined after 48 hours of incubation by flow cytometry using a FITC-conjugated monoclonal antibody directed to CD80 (Serotec, Oxford, U.K.) and analyzed by CELLQuest. Results are expressed as the percentage of CD80^hi DC following treatment.

Human dendritic cells [4] = assay: Induction of IFN-gamma production by DC (ELISA); settings: 100 μg, 48 hours
Protocol: as §1
DC were seeded in 1.0 ml at 1.0×10^5 cells/ml in 6-well flat-bottomed tissue culture plates for 48 hours with 100 μg of6 base N1A, N1B, N2A, N2B, N3A, N3B, N4A, N4B, N5A, N5B, N6A, N6B, N7A or N7B polynucleotides. Production of IFN-gamma was determined in 100 μl of culture supernatant using a commercial ELISA (BioSource) after 48 hours of incubation. Results are expressed as the “fold” (x) increase in IFN-gamma production by treated DC compared to control cells.

Human dendritic cells [5] = assay: MHC-II levels at the DC cell surface (flow cytometry); settings: DC from individual B; 100 μg, 48 hours
Protocol: as §1
DC from individual B were seeded in 1.0 ml at 1.0×10^5 cells/ml in 6-well flat-bottomed tissue culture plates for 48 hours with 100 μg of 6 base N1A, N1B, N2A, N2B, N3A, N3B, N5A, N5B, N6A, N6B, N7A or N7B polynucleotides. The level of MHC II at the cell surface was determined after 48 hours of incubation by flow cytometry using a FITC-conjugated monoclonal antibody directed to MHC II (Serotec) and analyzed by CELLQuest Pro. Results are expressed as the percentage of MHC II^hi DC following treatment.

Human dendritic cells [6] = assay: Increase in cell size and granularity of DC (flow cytometry); settings: 100 μg polynucleotide, 48 hours
Protocol: as §1
DC were seeded in 1.0 ml at 1.0×10^5 cells/ml in 6-well flat-bottomed tissue culture plates for 48 hours with 100 μg of 6 base N1A, N1B, N2A, N2B, N3A, N3B, N4A, N4B, N5A, N5B, N6A, N6B, N7A or N7B polynucleotides. Cell size (FCS: forward side scatter) and granularity (S SC: side light scatter) were determined by flow cytometry using a FACSCalibur and analyzed using the CELLQuest Pro software (both from Becton-Dickinson, San Diego, Calif., USA). Percentage of DC showing a FCS>500 units and a SSC>400 units have been determined after treatment with 3-OH, 5-OH polynucleotides for DC isolated from three different individuals.

Human dendritic cells [7] = assay: Induction of IL-1beta production by DC (ELISA); settings: 100 μg, 48 hours
Protocol: as §1
DC were seeded in 1.0 ml at 1.0×10^5 cells/ml in 6-well flat-bottomed tissue culture plates for 48 hours with 100 μg of 6 base N1A, N1B, N2A, N2B, N3A, N3B, N4A, N4B, N5A, N5B, N6A, N6B, N7A or N7B polynucleotides. Production of IL-1beta was determined in 100 μl of culture supernatant using a commercial ELISA (BioSource, Camarillo, Calif., USA) after 48 hours of incubation. Results are expressed as the “fold” (x) increase in IL-1beta production by treated DC compared to control cells.

Human dendritic cells [8] = assay: Induction of IL-12 by sequences plus GM-CSF (ELISA); settings: 100 μg, 48 hours
Protocol: as §1
DC from the individual B were seeded in 1.0 ml at 1.0×10^5 cells/ml in 6-well flat-bottomed tissue culture plates for 48 hours with 500 units of human recombinant GM-CSF (Clonetics) and 100 μg of 6 base polynucleotide N1A or polynucleotide N7A. Production of IL-12 was determined in 100 μl of culture supernatant using a commercial ELISA (BioSource) after 48 hours of incubation. Results are expressed as the “fold” (x) increase in IL-12 production by treated DC compared to control cells in absence or presence of recombinant GM-CSF.

Human dendritic cells [9] = assay: CD86 levels at the DC cell surface (flow cytometry); settings: DC from individual C; 100 μg, 48 hours
Protocol: as §1
DC from individuals B and C were seeded in 1.0 ml at 1.0×10^5 cells/ml in 6-well flat-bottomed tissue culture plates for 48 hours with 100 μg of 6 base N1A, N1B, N2A, N2B, N3A, N3B, N4A, N4B, N5A, N5B, N6A, N6B, N7A or N7B polynucleotides. The level of CD86 at the cell surface was determined after 48 hours of incubation by flow cytometry using a PE-conjugated monoclonal antibody directed to CD86 (Serotec) and analyzed by CELLQuest Pro. Results are expressed as the percentage of CD86^hi DC following treatment.

## 5′GGGCGG3′ [N7A] (DNA, all phosphodiester, methylation of C not given here)
Human dendritic cells [1]
  The percentage of CD40^hi DC following treatment: 23%
Human dendritic cells [2]; DC isolated from individual A
  IL-12 production by DC (fold increase compared to untreated DC): 1.0 fold
Human dendritic cells [2]; DC isolated from individual C
  IL-12 production by DC (fold increase compared to untreated DC): 0.9 fold
Human dendritic cells [3]; DC from individual B
  The percentage of CD80^hi DC following treatment: 23** %
Human dendritic cells [3]; DC from individual C
  The percentage of CD80^hi DC following treatment: 22** %
Human dendritic cells [4]; DC isolated from individual A
  IFN-gamma production by DC (fold increase compared to untreated DC): 1.0 fold
Human dendritic cells [4]; DC isolated from individual C
  IFN-gamma production by DC (fold increase compared to untreated DC): 1.0 fold
Human dendritic cells [5]
  The percentage of MHC-II^hi DC following treatment: 21%
Human dendritic cells [6]; DC isolated from individual A
  Percentage of DC showing a FCS > 500 units and a SSC > 400 units: 8%
Human dendritic cells [6]; DC isolated from individual C
  Percentage of DC showing a FCS > 500 units and a SSC > 400 units: 30%
Human dendritic cells [7]; DC isolated from individual A
  IL-1beta production by DC (fold increase compared to untreated DC): 1.1 fold
Human dendritic cells [7]; DC isolated from individual C
  IL-1beta production by DC (fold increase compared to untreated DC): 1.0 fold
Human dendritic cells [8]; +GM-CSF (500 units human recombinant)
  IL-12 production by DC from the individual B (fold increase compared to untreated DC): 11.7 fold
Human dendritic cells [8]; w/o GM-CSF
  IL-12 production by DC from the individual B (fold increase compared to untreated DC): 9.6 fold
Human dendritic cells [9]
  The percentage of CD86^hi DC following treatment: 34%
